Article PMC8302504, “Efficacy of Fenfluramine and Norfenfluramine Enantiomers and Various Antiepileptic Drugs in a Zebrafish Model of Dravet Syndrome” (Neurochemical Research, 2021)
“Also recorded” adds a separate entry of the source.

How the values were obtained:
5-HT2C = tested on: 5-HT2C; design: method as in earlier work; conditions: 34 (Rothman et al.); cited from earlier work
dopamine (DA) uptake = target: dopamine (DA) uptake; design: method as in earlier work; conditions: 34 (Rothman et al.); read-out: Ki values for uptake inhibition, DA; cited from earlier work
dopamine (DA) release = tested on: dopamine (DA) release; design: method as in earlier work; conditions: 34 (Rothman et al.); cited from earlier work
[1] = tested on: zebrafish scn1Lab−/− mutant model of DS; experiment: Overall antiepileptic activity in the zebrafish scn1Lab−/− mutant model (locomotor and LFP read-outs together); format: in vivo, Danio rerio; conditions: 22 h incubation
Method: (§1) WT and homozygous zebrafish larvae (scn1Lab^−/− mutants) (6 dpf) were individually positioned in single wells of a 96-well plate, and incubated in 100 μL VHC or VHC supplemented with compound or combined compounds for 22 h at 28 °C on a 14/10 h light/dark cycle. Then, the plates were placed immediately in an enclosed tracking device (ZebraBox Viewpoint, France), followed by a 30 min chamber habituation and 10 min recording. Locomotor activity over the total tracking period of 10 min was quantified by ZebraLab software (Software Viewpoint, France) using the lardist parameter (total distance in large movements) and 150 bkg (background) as a threshold, as reported previously by our group. For “small/large movement” and “inact/small movement”, a threshold was used of 6.4 and 3.3, respectively. Data were pooled from three or four independent experiments, with at least five larvae for each treatment and 20–30 larvae for each experimental condition, and expressed as “cm” per 100 s.
(§2) WT and homozygous zebrafish larvae (scn1Lab^−/− mutants) (6 dpf) were treated as described above. After incubation, larvae were immobilized in 2% low-melting-point agarose (Invitrogen) at room temperature (RT) and the epileptiform activities were measured by noninvasive local field potential (LFP) recording from the skin above the optic tectum (midbrain). The single glass electrode filled with artificial cerebrospinal fluid (ACSF) (124 mM NaCl, 2 mM KCl, 2 mM MgSO4, 2 mM CaCl2, 1.25 mM KH2PO4, 26 mM NaHCO3, and 10 mM glucose) was positioned on the skin above the optic tectum. Each recording lasted for 10 min. Epileptiform activity was quantified by using Clampfit 10.2 software (Molecular Devices Corporation, USA60), as reported previously by our group.

5-HT2B = tested on: 5-HT2B; design: method as in earlier work; conditions: 34 (Rothman et al.); cited from earlier work
[2] = target: norepinephrine (NE) uptake; design: method as in earlier work; conditions: 34 (Rothman et al.); read-out: Ki values for uptake inhibition, NE; cited from earlier work
[3] = tested on: norepinephrine (NE) release; design: method as in earlier work; conditions: 34 (Rothman et al.); cited from earlier work
serotonin uptake = target: serotonin uptake; design: method as in earlier work; conditions: 34 (Rothman et al.); read-out: Ki values for uptake inhibition, 5-HT; cited from earlier work
[4] = tested on: 5-HT transporter proteins; design: method as in earlier work; conditions: 34 (Rothman et al.); read-out: EC50 values for release, 5-HT; cited from earlier work
[5] = Compound concentration (uptake) in larval zebrafish heads by LC-MS; format: in vivo, Danio rerio; conditions: immersion at MTC for 30 min, 4 h and 22 h, Fig. 4
Method: WT and homozygous zebrafish larvae (scn1Lab^−/− mutants) (6 dpf) were treated as described above. After incubation with compounds, larvae were washed and euthanized by exposure to cold Milli-Q water. Then, the heads of larvae were carefully separated under the microscope, and five heads were transferred collectively into one 1.5 mL Eppendorf tube with acid-washed glass beads (diameter: […], Sigma Aldrich) and 275 µL extraction medium (HPLC grade methanol, Sigma Aldrich). Next, the samples were homogenized by 10 min of ultrasonication (Diagenode Bioruptor Plus, Belgium) at 4 °C. The overall ultrasonication process encompassed 10 cycles of 30 s with pauses of 30 s in-between with high energy input. […]
Quantification was performed through the use of a calibration curve created for each compound separately in blank matrix, which was derived from a pooled set of blank fish heads (n = 40). […] Ranges consisted of at least 5 concentrations, each of which was analyzed in replicate (n = 5). […]
The mean head weight (± S.D.) of a 6 dpf and 7 dpf zebrafish larva was 192 ± 10 µg and 196 ± 13 µg, respectively, as measured by weighing three batches of 50 fresh heads after removing excess water with filter paper. The final uptake was calculated according to the method reported by Copmans et al., and expressed as amount/head weight (µg/g).

5-HT2A = tested on: 5-HT2A; design: method as in earlier work; conditions: 34 (Rothman et al.); cited from earlier work
[6] = tested on: zebrafish scn1Lab−/− mutant larvae; experiment: Noninvasive local field potential (LFP) recordings from the optic tectum; format: in vivo, Danio rerio; conditions: 22 h
Method: as §2

[7] = tested on: zebrafish scn1Lab−/− mutant larvae; experiment: Locomotor activity measurement (behavioral assay) in the zebrafish DS model; format: in vivo, Danio rerio; conditions: single treatment at MTC, 22 h, Fig. 2A
Method: as §1

WT zebrafish larvae = experiment: Toxicity evaluation: maximum tolerated concentration (MTC); format: in vivo, Danio rerio; conditions: WT larvae 6 dpf, 22 h incubation
Method: To evaluate the maximum tolerated concentration (MTC) of the individual compounds, a dozen of WT zebrafish larvae (6 dpf) were individually incubated in single wells of a 96-well plate, and treated with two-fold serial dilutions of the compounds. After 22 h incubation under standard conditions (28 °C, 14/10 light/dark cycle), larvae were individually examined for their touch response, posture, edema, signs of necrosis, morphology, heartbeat rate, and swim bladder condition under the microscope.

[8] = tested on: DS zebrafish mutant model; design: method as in PMID 29335539; conditions: cited from earlier work
[9] = 5 dpf zebrafish larvae, 1 h incubation with 15 µg/mL; cited from earlier work

| Compound | Kact values for 5-HT2 receptor subtypes, 5-HT2C (5-HT2C) | Ki (dopamine (DA) uptake) | EC50 (dopamine (DA) release) | antiepileptic activity in the model (overall) [1] | Kact values for 5-HT2 receptor subtypes, 5-HT2B (5-HT2B) | Ki [2] | EC50 [3] | Ki (serotonin uptake) | EC50 [4] | total uptake in larval heads (amount of compound/head weight) [5] | Kact values for 5-HT2 receptor subtypes, 5-HT2A (5-HT2A) | effect on frequency and cumulative duration of the epileptiform events ([6]; at least at MTC, Fig. 7) | effect on epileptiform brain discharges ([6]; single treatment at MTC) | effect on epileptiform (hyper-)locomotor activity [7] | maximum tolerated concentration (MTC) (WT zebrafish larvae) | efficacy in the DS zebrafish mutant model [8] | head uptake (recovered concentration) [9] |
| --- | --- | --- | --- | --- | --- | --- | --- | --- | --- | --- | --- | --- | --- | --- | --- | --- | --- |
| CCN[C@@H](C)Cc1cccc(C(F)(F)F)c1 [(+)-FFA] | 362 ± 64 nM | > 20 µM | > 10 µM | more consistent and concentration-dependent; also recorded: significant antiepileptic effects | 379 ± 70 nM | 1.29 ± 0.052 µM | 0.302 ± 0.02 µM |  |  |  |  |  |  |  |  |  |  |
| C[C@H](N)Cc1cccc(C(F)(F)F)c1 [(+)-norFFA] | 13 ± 2.4 nM | 2.31 ± 0.087 µM | 0.924 ± 0.112 µM | more consistent and concentration-dependent; also recorded: significant antiepileptic effects | 18.4 ± 5.3 nM | 0.205 ± 0.019 µM | 0.0727 ± 0.0054 µM | 0.214 ± 0.009 µM | 0.0593 ± 0.0024 µM | somewhat similar uptake; also recorded: taken up less than the parent compound | 630 ± 141 nM |  |  |  |  |  |  |
| CCN[C@H](C)Cc1cccc(C(F)(F)F)c1 [(−)-FFA] | 360 ± 91 nM | > 20 µM | > 10 µM | significant antiepileptic effects | 1248 ± 252 nM | 7.19 ± 0.559 µM | > 10 µM |  |  |  |  |  |  |  |  |  |  |
| C[C@@H](N)Cc1cccc(C(F)(F)F)c1 [(−)-norFFA] | 18 ± 3.5 nM | 19.2 µM | > 10 µM | less conclusive | 357 ± 105 nM | 2.05 ± 0.297 µM | 0.474 ± 0.04 µM | 1.18 ± 0.089 µM | 0.287 ± 0.014 µM | somewhat similar uptake | 1565 ± 190 nM | all compounds except for (−)-norFFA significantly reduced |  |  |  |  |  |
| CN1C(=O)CC(=O)N(c2ccccc2)c2cc(Cl)ccc21 [CLB, clobazam] |  |  |  |  |  |  |  |  |  |  |  |  | failed to rescue | failed to rescue | 100 µM | ineffective |  |
| O=C(CCCN1CCC(O)(c2ccc(Cl)cc2)CC1)c1ccc(F)cc1 [haloperidol] |  |  |  |  |  |  |  |  |  |  |  |  |  |  |  |  | 21.6 µg/g |
